Test results from US20230047961A1, “THE CHOLESTEROL-SYNTESIS INTERMEDIATES FOR TREATMENT DEMYELINATING DISORDERS” (priority 2019, published 2023).
“Also recorded” adds a separate entry of the source.

Key:
[1] = tested on: inflammatory cells in brain and spinal cord tissue; assay: Flow cytometry of inflammatory cells in brain and spinal cord of Plp1-tg mice; assay type: in vivo, mouse; settings: 0.5% [v/w] squalene diet between 2 and 12 weeks of age (FIG. 14b)
Protocol: (§1) Single-cell suspensions from spinal cords were obtained via mechanical dissociation on a cell strainer. Immune cells were separated over a two-phase Percoll-density gradient (70%/30%). Blood was collected by cardiac puncture in EDTA (80 mM) and single-cell suspension was obtained by centrifugation over lymphocyte separation medium (LSM 1077, PAA). Staining of abTCR/CD4 T cells, abTCR/CD8 T cells and CD45/CD11 b cells (macrophages/microglia) was performed using the following antibodies in a 1:200 dilution:Anti-CD3e (clone 145-2C11), BioLegend; anti-CD4 (clone GK 1.5), BD; anti-CD8 (clone 53-6.7), BD; […]; anti-CD11b (clone M1/70), BioLegend; anti-CD45.2 (clone 104), BioLegend. The addition of Calibrite APC beads (BD) allowed for cell quantification. Flow cytometry was performed using a FACSCalibur operated by Cell Quest software (Becton Dickinson).
(§2) Plp1 transgenic Plp1-tg, line #72 mice (Readhead et al., 1994, Stumpf, Berghoff et al., 2019) harbor three copies of the murine Plp1 gene. Dietary treatment was applied between 2 and 12 weeks of age.
(§3) Dietary supplementation with squalene (0.5% [v/w]).

[2] = tested on: MOG35-55 induced EAE animals; assay: Clinical score of MOG35-55 induced EAE animals; assay type: in vivo, mouse
Protocol: For MOG-EAE, mice purchased from Charles River were immunized subcutaneously with […] myelin oligodendrocyte glycoprotein peptide 35-55 (MOG35-55) in complete Freund's adjuvant (M. tuberculosis at 3.75 mg ml^−1) and i.p. injected twice with 500 ng pertussis toxin. Animals were examined daily and scored for clinical signs of the disease. […] The clinical score was: 0 normal; 0.5 loss of tail tip tone; 1 loss of tail tone; 1.5 ataxia, mild walking deficits (slip off the grid); 2 mild hind limb weakness, severe gait ataxia, twist of the tail causes rotation of the whole body; 2.5 moderate hind limb weakness, cannot grip the grid with hind paw, but able to stay on a upright tilted grid; 3 mild paraparesis, falls down from a upright tiled grid; 3.5 paraparesis of hind limbs (legs strongly affected, but move clearly); 4 paralysis of hind limbs, weakness in forelimbs; 4.5 forelimbs paralyzed; 5 moribund/dead. […] DMHCA (Avanti) was dissolved in corn oil (Sigma) and given therapeutically in chow at a dosage of 8 mg kg^−1. IFNβ1b (Bayer) was administrated by daily intraperitoneal (i.p.) injections 30.000 U per animal.

myelinating co-cultures = assay: Myelinating co-culture in vitro (MBP area normalized to SM131 axons); assay type: cell-based; settings: 100 μM squalene
Protocol: Myelinating co-cultures were established as described (Thomson, C. E. et al. 2008) with minor modifications. Briefly, E13 embryonic spinal cords were digested in 0.125% Trypsin solution in HBSS (without Ca^+2 and Mg^+2) at 37° C. for 20 min. After stopping the digestion with 1 ml plating media (DMEM, 25% horse serum, 25% HBSS, […] DNAse) the tissue was homogenized by gentle trituration and centrifuged for 5 min. 150,000 cells were plated per poly-L-lysine coated coverslip; 3 coverslips per 35 mm Petri dish. After cell attachment in plating media, differentiation media was added (low glucose DMEM, […] insulin, 10 ng ml^−1 biotin, 50 nM hydrocortisone, 0.5% N1-mix). N1 mix was 1 mg ml^−1 apo-transferrin, 20 mM putrescine, […] progesterone, and 6 mM sodium selenite. 50% media change was performed every 24-48 h with differentiation media. Squalene (100 μM) was added at day 3 to cultures. After 12 days, insulin was removed from differentiation media. […] Axonal (SM131) area and the area with myelin sheaths (MBP) of seven randomly chosen visual fields of myelinating co-cultures (×20 magnification) was measured by automated threshold with Fiji Software (SM131 Otsu, MBP Triangle). Specimens were analyzed on an Axiophot observer.Z1 (Zeiss) equipped with an AxioCam MRm and the ZEN 2012 blue edition software and evaluated with Image J software.

Plp1-tg mice = assay: Elevated beam test in Plp1-tg mice (Pelizaeus-Merzbacher disease model); assay type: in vivo, mouse; settings: 0.5% [v/w] squalene diet between 2 and 12 weeks of age (FIG. 14a)
Description: as §2, §3
To assess bilateral sensorimotor coordination that involves connecting white matter structures, elevated beam test (in-house made, MPI of experimental medicine) was applied. Mice were trained to run toward a hiding box on a beam (width 1.5 cm) one week before testing. In one testing session number of slips in a defined 55 cm distance over three repeats was counted. Mean number of slips after three testing sessions (8 weeks, 10 weeks and 12 weeks) was quantified.

[3] = tested on: lysolecithin induced lesions; assay: Remyelination in lysolecithin induced spinal cord lesions; assay type: in vivo, mouse; settings: 14 days post lesion
Protocol: Focal spinal cord demyelinating lesions were induced under MMF anesthesia (1.0 mg kg^−1 midazolam, 0.05 mg kg^−1 medetomidine and 0.02 mg kg^−1 fentanyl) by stereotactic injection of 1 μl lysolecithin (1%, from egg yolk, alpha-lysophosphatidyl-choline, Sigma) into the left and right ventro-lateral funiculus at Th10 of 8-week old animals. The injection was performed at a rate of ˜1 μl min^−1. This procedure created fusiform demyelinating lesions, 5-6 mm in length. At the day of injection, mice were randomly assigned to normal or 0.5% [v/w] squalene supplemented chow for 14 days, after which the animals were killed, and the spinal cord processed for histology. For serum isolation, blood was collected by cardiac puncture, and serum was prepared after 4 h clotting by centrifugation.
Mice were perfused with 4% paraformaldehyde (PFA). Spinal cord tissue was postfixed overnight, embedded in paraffin and cut into […] sections (HMP 110, MICROM). For immunohistological analyses, sections were deparaffinized followed by antigen-retrieval in sodium citrate buffer (0.01 M, pH 6.0). For immunofluorescence, sections were blocked with serum free protein block (Dako). Primary antibodies were diluted in 2% bovine serum albumin (BSA)/PBS and incubated for 48 h followed by fluorophor coupled secondary antibodies. Lesion area (DAPI clustered nuclei), oligodendrocyte cell number (CAll, carbonic anhydrase 2) and myelin positive area (MBP, myelin basic protein) were evaluated.

[4] = tested on: peripheral inflammatory cells; assay: Flow cytometry of peripheral inflammatory cells per ml blood in EAE; assay type: in vivo, mouse; settings: peak of EAE disease (day 16), therapeutic squalene vs normal chow (FIG. 3a-c)
Protocol: as §1

[5] = tested on: inflammatory cells in spinal cord tissue; assay: Flow cytometry of inflammatory cells per gram spinal cord in EAE; assay type: in vivo, mouse; settings: peak of EAE disease (day 16), therapeutic squalene vs normal chow (FIG. 2)
[6] = tested on: spinal cord tissue gene expression; assay: RT-qPCR expression profile in spinal cord lysates of EAE mice; assay type: in vivo, mouse; settings: remission phase
Protocol: (§4) For tissue expression analyses, spinal cord tissue was dissected from ˜Th10-˜L5. RNA was isolated using QIAshredder and RNeasy protocols (Qiagen). Concentration and quality of RNA was evaluated using a NanoDrop spectrophotometer and RNA Nano (Agilent). cDNA was synthesized with Superscript III (Invitrogen) and quantitative PCRs were done in triplicates with the GoTaq qPCR Master Mix (Promega) on a 7500 Fast Real-Time PCR System (Applied Biosystems). Expression values were normalized to the mean of three—five housekeeping genes, HPRT (Hypoxanthin-Phosphoribosyl-Transferase 1) and Rplp0 (60S acidic ribosomal protein P), Rps13 (Ribosomal Protein S13), Gapdh (Glyceraldehyde-3-Phosphate Dehydrogenase), 18S (18S ribosomal RNA) and quantification was done by applying the ΔΔCt method, normalized to age matched untreated controls (set to 1). All primers were intron-spanning.

[7] = tested on: CD11b+ myeloid cells (microglia/macrophages); assay: RT-qPCR expression profile in MACS isolated CD11b+ myeloid cells of EAE mice; assay type: in vivo, mouse
Description: Microglia/Macrophages were isolated according to the adult brain dissociation protocol (Miltenyi biotec). Spinal cord was isolated on ice followed by removal of meninges. Antibody labeling steps were done according to the respective antibody Microbead kit protocol (Miltenyi biotec), oligodendrocytes (04, 130-096-670) and microglia (CD11 b, 130-093-636).
as §4

[8] = prophylactic squalene vs chow fed controls (FIG. 4a)
[9] = prophylactic squalene vs chow fed controls (FIG. 4b)
[10] = acute phase (15 days post immunization), prophylactic squalene vs chow (FIG. 5a)

Question: How did the “Number of inflammatory cells per gram brain” value [1] turn out when `CC(C)=CCCC(C)=CCC/C(C)=C/CC/C=C(\C)CC/C=C(\C)CCC=C(C)C` (stereo in doubt) [squalene, (6E,10E,14E,18E)-2,6,10,15,19,23-hexamethyltetracosa-2,6,10,14,18,22-hexaene] was run?
Answer: Its value is “reduced number of inflammatory cells”.

Question: What about the “Number of inflammatory cells per gram spinal cord” value [1] of the same molecule?
Answer: Its value is “reduced number of inflammatory cells”.

Question: And the “Mean clinical score (EAE disease severity)” value ([2]; prophylactic regimen, 0.5% [v/w] squalene chow from 14 days before immunization (FIG. 1a, 1c))?
Answer: The value was “ameliorate disease severity; also recorded: more effective prophylactic effect than the treatment of multiple sclerosis with interferon beta-1b”.

Question: And the “Mean clinical score (EAE disease severity)” value ([2]; therapeutic regimen, 0.5% [v/w] squalene chow from day of disease onset (FIG. 1b))?
Answer: The value was “ameliorate disease severity”.

Question: And the “Mean clinical score (EAE disease severity)” value ([2]; therapeutic regimen, squalene 0.03% [v/w] (FIG. 10a, 10b))?
Answer: The value was “Disease amelioration was already present”.

Question: What about the “Mean clinical score (EAE disease severity), dose comparison” value ([2]; therapeutic regimen, squalene 0.03% [v/w], 0.5% [v/w] and 5% [v/w] (FIG. 10a)) of the same molecule?
Answer: Its value is “dose depend”.

Question: What about the “MBP positive area normalized to SM131 positive axons” value (myelinating co-cultures; 21 DIV (FIG. 7)) of the same molecule?
Answer: The value was “increased MBP positive area”.

Question: And the “MBP positive area normalized to SM131 positive axons” value (myelinating co-cultures; 30 DIV (FIG. 7))?
Answer: The value was “increased MBP positive area”.

Question: And the “Clinical disease severity by elevated beam testing (number of slips)” value (Plp1-tg mice)?
Answer: Its value is “high potential to ameliorate clinical disease severity”.

Question: What about the “Number of CAII positive mature oligodendrocytes within lesion area” value ([3]; 0.5% [v/w] squalene chow from day of lesion induction vs control (FIG. 6b)) of the same molecule?
Answer: The value was “strongly increased”.

Question: What about the “Degree of MBP positive myelinated axons within lesion area” value ([3]; 0.5% [v/w] squalene chow from day of lesion induction vs control (FIG. 6f)) of the same molecule?
Answer: The value was “strongly increased”.

Question: What about the “Size of the lesion area (DAPI positive increased nuclear density)” value ([3]; 0.5% [v/w] squalene chow vs control (FIG. 6c)) of the same molecule?
Answer: Its value is “comparable”.

Question: And the “Number of peripheral immune cells (abTCR/CD4+, abTCR/CD8+, CD45+/CD11b+) per ml blood” value [4]?
Answer: Its value is “did not observe differences”.

Question: What about the “Number of CD11b+/CD45+ myeloid cells per gram spinal cord” value [5] of the same molecule?
Answer: Its value is “reduced numbers”.

Question: And the “Number of inflammatory CD4+ T cells per gram spinal cord” value [5]?
Answer: The value was “reduced numbers”.

Question: And the “Number of inflammatory CD8+ T cells per gram spinal cord” value [5]?
Answer: Its value is “reduced numbers”.

Question: What about the “Expression of cholesterol export genes (Abca1, Abcg1, Abcg4, Apoe, Clu)” value [6, 8] of the same molecule?
Answer: The value was “significantly increased expression”.

Question: What about the “Expression of cholesterol synthesis genes (Hmgc1, Hmgcr, Fdft1, Dhcr24, Cyp51a1, Mvk)” value [6, 8] of the same molecule?
Answer: Its value is “significantly increased expression”.

Question: And the “Expression of cholesterol uptake genes (Ldlr, Vldlr, Apobr, Lrp1, Lrp2)” value [6, 8]?
Answer: Its value is “significantly increased expression”.

Question: What about the “Expression of genes related to myelination and oligodendrocyte differentiation (Plp1, Car2, Olig2, Pdgfra, Cspg4)” value [6, 8] of the same molecule?
Answer: The value was “significantly increased expression”.

Question: What about the “Expression of pro-inflammatory mediator genes” value [6, 9] of the same molecule?
Answer: Its value is “reduced expression”.

Question: And the “Gene expression of the anti-inflammatory molecules 1110 and Tgfb1” value [6, 9]?
Answer: Its value is “significantly increased”.

Question: And the “Expression levels of pro-inflammatory mediator genes such as TNF and IL1β” value [7, 10]?
Answer: The value was “reduced expression levels”.

Question: What about the “Expression of anti-inflammatory molecules such as TGFβ1” value [7, 10] of the same molecule?
Answer: Its value is “increased expression”.

Question: What about the “Expression of cholesterol export genes Abca1 and Apoe” value ([7]; acute phase, prophylactic squalene vs untreated control (FIG. 5b)) of the same molecule?
Answer: Its value is “upregulated”.
